Earlier results, collected in patent US7422607B2, “Anti-calcification treatments for heart valves and vascular grafts” (priority 2004, dated 2008).

Conditions: buffer system described by Giradot (U.S. Pat. No. 4,976,733)

**Q.** Which “Solubility in the buffer system” value does the source give for `CCCCCCCC/C=C\CCCCCCC(N)C(=O)O` (stereo not drawn) [alpha amino oleic acid] here?
**A.** extremely low solubility
